According to ChEMBL document CHEMBL3792365, “Dioxol and dihydrodioxin analogs of 2- and 3-phenylacetonitriles as potent anti-cancer agents with nanomolar activity against a variety of human cancer cells” (2016):

Columns and labels:
Assay type in all cases: functional
[1] = Growth inhibition of human OVCAR8 cells at 10 uM after 48 hrs by sulforhodamine B assay; settings: OVCAR-8, 48 h, values are per cent of control
[2] = Growth inhibition of human UACC62 cells at 10 uM after 48 hrs by sulforhodamine B assay; settings: UACC-62, 48 h, values are per cent of control
[3] = Growth inhibition of human HCT116 cells at 10 uM after 48 hrs by sulforhodamine B assay; settings: HCT-116, 48 h, values are per cent of control
[4] = Growth inhibition of human DU145 cells at 10 uM after 48 hrs by sulforhodamine B assay; settings: DU-145, 48 h, values are per cent of control
[5] = Growth inhibition of human SW620 cells at 10 uM after 48 hrs by sulforhodamine B assay; settings: SW-620, 48 h, values are per cent of control
[6] = Growth inhibition of human RXF393 cells at 10 uM after 48 hrs by sulforhodamine B assay; settings: RXF 393, 48 h, values are per cent of control
[7] = Growth inhibition of human COLO205 cells at 10 uM after 48 hrs by sulforhodamine B assay; settings: COLO 205, 48 h, values are per cent of control
MDA-MB-435 = assay: Growth inhibition of human MDA-MB-435 cells at 10 uM after 48 hrs by sulforhodamine B assay; settings: MDA-MB-435, 48 h, values are per cent of control
A549 = assay: Growth inhibition of human A549/ATCC cells at 10 uM after 48 hrs by sulforhodamine B assay; settings: A549, 48 h, values are per cent of control
SN12C = assay: Growth inhibition of human SN12C cells at 10 uM after 48 hrs by sulforhodamine B assay; settings: values are per cent of control
[8] = Growth inhibition of human SNB75 cells at 10 uM after 48 hrs by sulforhodamine B assay; settings: SNB-75, 48 h, values are per cent of control
[9] = Growth inhibition of human SF295 cells at 10 uM after 48 hrs by sulforhodamine B assay; settings: SF-295, 48 h, values are per cent of control
HT-29 = assay: Growth inhibition of human HT-29 cells at 10 uM after 48 hrs by sulforhodamine B assay; settings: HT-29, 48 h, values are per cent of control
[10] = Growth inhibition of human SNB19 cells at 10 uM after 48 hrs by sulforhodamine B assay; settings: SNB-19, 48 h, values are per cent of control
NCI-H226 = assay: Growth inhibition of human NCI-H226 cells at 10 uM after 48 hrs by sulforhodamine B assay; settings: NCI-H226, 48 h, values are per cent of control
[11] = Growth inhibition of human OVCAR4 cells at 10 uM after 48 hrs by sulforhodamine B assay; settings: OVCAR-4, 48 h, values are per cent of control
[12] = Growth inhibition of human HOP62 cells at 10 uM after 48 hrs by sulforhodamine B assay; settings: HOP-62, 48 h, values are per cent of control
[13] = Growth inhibition of human IGROV1 cells at 10 uM after 48 hrs by sulforhodamine B assay; settings: IGROV-1, 48 h, values are per cent of control
[14] = Growth inhibition of human LOXIMVI cells at 10 uM after 48 hrs by sulforhodamine B assay; settings: LOX IMVI, values are per cent of control
NCI-H322M = assay: Growth inhibition of human NCI-H322M cells at 10 uM after 48 hrs by sulforhodamine B assay; settings: values are per cent of control
[15] = Growth inhibition of human Caki1 cells at 10 uM after 48 hrs by sulforhodamine B assay; settings: CAKI-1, 48 h, values are per cent of control
SK-MEL-5 = assay: Growth inhibition of human SK-MEL-5 cells at 10 uM after 48 hrs by sulforhodamine B assay; settings: SK-MEL-5, 48 h, values are per cent of control
NCI-H460 = assay: Growth inhibition of human NCI-H460 cells at 10 uM after 48 hrs by sulforhodamine B assay; settings: NCI-H460, 48 h, values are per cent of control
[16] = Growth inhibition of human SF539 cells at 10 uM after 48 hrs by sulforhodamine B assay; settings: SF-539, 48 h, values are per cent of control
A498 = assay: Growth inhibition of human A498 cells at 10 uM after 48 hrs by sulforhodamine B assay; settings: A498, 48 h, values are per cent of control
KM12 = assay: Growth inhibition of human KM12 cells at 10 uM after 48 hrs by sulforhodamine B assay; settings: KM12, 48 h, values are per cent of control
[17] = Growth inhibition of human HCT15 cells at 10 uM after 48 hrs by sulforhodamine B assay; settings: HCT-15, 48 h, values are per cent of control
786-0 = assay: Growth inhibition of human 786-0 cells at 10 uM after 48 hrs by sulforhodamine B assay; settings: 786-0, 48 h, values are per cent of control
SR = assay: Growth inhibition of human SR cells at 10 uM after 48 hrs by sulforhodamine B assay; settings: values are per cent of control
K562 = assay: Growth inhibition of human K562 cells at 10 uM after 48 hrs by sulforhodamine B assay; settings: K562, 48 h, values are per cent of control
SK-MEL-2 = assay: Growth inhibition of human SK-MEL-2 cells at 10 uM after 48 hrs by sulforhodamine B assay; settings: SK-MEL-2, 48 h, values are per cent of control
[18] = Growth inhibition of human OVCAR5 cells at 10 uM after 48 hrs by sulforhodamine B assay; settings: OVCAR-5, 48 h, values are per cent of control
[19] = Growth inhibition of human UO31 cells at 10 uM after 48 hrs by sulforhodamine B assay; settings: UO-31, 48 h, values are per cent of control
[20] = Growth inhibition of human Hs 578T cells at 10 uM after 48 hrs by sulforhodamine B assay; settings: values are per cent of control
ACHN = assay: Growth inhibition of human ACHN cells at 10 uM after 48 hrs by sulforhodamine B assay; settings: values are per cent of control
MDA-MB-231 = assay: Growth inhibition of human MDA-MB-231 cells at 10 uM after 48 hrs by sulforhodamine B assay; settings: MDA-MB-231, 48 h, values are per cent of control
NCI-H23 = assay: Growth inhibition of human NCI-H23 cells at 10 uM after 48 hrs by sulforhodamine B assay; settings: NCI-H23, 48 h, values are per cent of control
M14 = assay: Growth inhibition of human M14 cells at 10 uM after 48 hrs by sulforhodamine B assay; settings: M14, 48 h, values are per cent of control
[21] = Growth inhibition of human BT549 cells at 10 uM after 48 hrs by sulforhodamine B assay; settings: BT-549, 48 h, values are per cent of control
SK-MEL-28 = assay: Growth inhibition of human SK-MEL-28 cells at 10 uM after 48 hrs by sulforhodamine B assay; settings: SK-MEL-28, 48 h, values are per cent of control

SMILES: N#C/C(=C\c1cccnc1Cl)c1ccc2c(c1)OCO2
- growth, % of control at 10 µM [1]: 56.2%
- growth, % of control at 10 µM [2]: 85.7%
- growth, % of control at 10 µM [3]: 94%
- growth, % of control at 10 µM [4]: 115%
- growth, % of control at 10 µM [5]: 94.8%
- growth, % of control at 10 µM [6]: 98.3%
- growth, % of control at 10 µM [7]: 112%
- growth, % of control at 10 µM (MDA-MB-435): 97.1%
- growth, % of control at 10 µM (A549): 103%
- growth, % of control at 10 µM (SN12C): 91.7%
- growth, % of control at 10 µM [8]: 102%
- growth, % of control at 10 µM [9]: 110%
- growth, % of control at 10 µM (HT-29): 106%
- growth, % of control at 10 µM [10]: 101%
- growth, % of control at 10 µM (NCI-H226): 98.9%
- growth, % of control at 10 µM [11]: 100%
- growth, % of control at 10 µM [12]: 103%
- growth, % of control at 10 µM [13]: 113%
- growth, % of control at 10 µM [14]: 103%
- growth, % of control at 10 µM (NCI-H322M): 97%
- growth, % of control at 10 µM [15]: 103%
- growth, % of control at 10 µM (SK-MEL-5): 92.2%
- growth, % of control at 10 µM (NCI-H460): 102%
- growth, % of control at 10 µM [16]: 99.8%
- growth, % of control at 10 µM (A498): 90.7%
- growth, % of control at 10 µM (KM12): 109%
- growth, % of control at 10 µM [17]: 98.8%
- growth, % of control at 10 µM (786-0): 94%
- growth, % of control at 10 µM (SR): 92.8%
- growth, % of control at 10 µM (K562): 113%
- growth, % of control at 10 µM (SK-MEL-2): 98.9%
- growth, % of control at 10 µM [18]: 106%
- growth, % of control at 10 µM [19]: 87.6%
- growth, % of control at 10 µM [20]: 129%
- growth, % of control at 10 µM (ACHN): 109%
- growth, % of control at 10 µM (MDA-MB-231): 99.8%
- growth, % of control at 10 µM (NCI-H23): 97.2%
- growth, % of control at 10 µM (M14): 94.9%
- growth, % of control at 10 µM [21]: 88.5%
- growth, % of control at 10 µM (SK-MEL-28): 113%

SMILES: N#C/C(=C\c1cccc2ccccc12)c1ccc2c(c1)OCO2
- growth, % of control at 10 µM [1]: 99%
- growth, % of control at 10 µM [2]: 44.7%
- growth, % of control at 10 µM [3]: 32.7%
- growth, % of control at 10 µM [4]: 77.7%
- growth, % of control at 10 µM [5]: 35.2%
- growth, % of control at 10 µM [6]: 64.3%
- growth, % of control at 10 µM [7]: 56%
- growth, % of control at 10 µM (MDA-MB-435): -28.5%
- growth, % of control at 10 µM (A549): 55.9%
- growth, % of control at 10 µM (SN12C): 75.9%
- growth, % of control at 10 µM [8]: 61.6%
- growth, % of control at 10 µM [9]: 68.2%
- growth, % of control at 10 µM (HT-29): 23.5%
- growth, % of control at 10 µM [10]: 82.1%
- growth, % of control at 10 µM (NCI-H226): 83%
- growth, % of control at 10 µM [11]: 68.9%
- growth, % of control at 10 µM [12]: 75.9%
- growth, % of control at 10 µM [13]: 68.8%
- growth, % of control at 10 µM [14]: 65.2%
- growth, % of control at 10 µM (NCI-H322M): 90.5%
- growth, % of control at 10 µM [15]: 61.2%
- growth, % of control at 10 µM (SK-MEL-5): 66.2%
- growth, % of control at 10 µM (NCI-H460): 77.8%
- growth, % of control at 10 µM [16]: 67.9%
- growth, % of control at 10 µM (A498): 35.7%
- growth, % of control at 10 µM (KM12): 39.2%
- growth, % of control at 10 µM [17]: 40.6%
- growth, % of control at 10 µM (786-0): 77.1%
- growth, % of control at 10 µM (SR): 23.8%
- growth, % of control at 10 µM (K562): 21.7%
- growth, % of control at 10 µM (SK-MEL-2): 59.8%
- growth, % of control at 10 µM [18]: 98.2%
- growth, % of control at 10 µM [19]: 80.3%
- growth, % of control at 10 µM [20]: 65.5%
- growth, % of control at 10 µM (ACHN): 79.3%
- growth, % of control at 10 µM (MDA-MB-231): 48.3%
- growth, % of control at 10 µM (NCI-H23): 77.7%
- growth, % of control at 10 µM (M14): 37.9%
- growth, % of control at 10 µM [21]: 51.8%
- growth, % of control at 10 µM (SK-MEL-28): 64.6%
